Test results: PubChem BioAssay AID2060621 (Molecular Pharmacology Branch, DTP, NCI, 2025)

System: 324938-238-R-J1-PDC complex spheroids viability
Experiment: Anticancer human tumor 324938-238-R-J1-PDC patient-derived bladder carcinoma cell line growth inhibition [CLK]
Conditions: for IC50: curve of first compound; for viability, T/C: stronger effect = lower value
Summary of the method: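 Multi-cell-type spheroids combined patient-derived tumor cells with HUVEC endothelial cells and human mesenchymal stem cells. Paired agents were dosed in half-log steps down from about clinical Cmax, or from 10 microM where Cmax was unknown.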

[1] = second compound 0.0316 µM, first compound 0.0316 µM
[2] = second compound 0.0316 µM, first compound 0.1 µM
[3] = second compound 0.0316 µM, first compound 0.316 µM
[4] = second compound 0.0316 µM, first compound 1 µM
[5] = second compound 0.0316 µM, first compound 3.16 µM
[6] = second compound 0.0316 µM, first compound 10 µM
[7] = second compound 0.1 µM, first compound 0.0316 µM
[8] = second compound 0.1 µM, first compound 0.1 µM
[9] = second compound 0.1 µM, first compound 0.316 µM
[10] = second compound 0.1 µM, first compound 1 µM
[11] = second compound 0.1 µM, first compound 3.16 µM
[12] = second compound 0.1 µM, first compound 10 µM
[13] = second compound 0.316 µM, first compound 0.0316 µM
[14] = second compound 0.316 µM, first compound 0.1 µM
[15] = second compound 0.316 µM, first compound 0.316 µM
[16] = second compound 0.316 µM, first compound 1 µM
[17] = second compound 0.316 µM, first compound 3.16 µM
[18] = second compound 0.316 µM, first compound 10 µM
[19] = second compound 1 µM, first compound 0.0316 µM
[20] = second compound 1 µM, first compound 0.1 µM
[21] = second compound 1 µM, first compound 0.316 µM
[22] = second compound 1 µM, first compound 1 µM
[23] = second compound 1 µM, first compound 3.16 µM
[24] = second compound 1 µM, first compound 10 µM
[25] = second compound 3.16 µM, first compound 0.0316 µM
[26] = second compound 3.16 µM, first compound 0.1 µM
[27] = second compound 3.16 µM, first compound 0.316 µM
[28] = second compound 3.16 µM, first compound 1 µM
[29] = second compound 3.16 µM, first compound 3.16 µM
[30] = second compound 3.16 µM, first compound 10 µM
[31] = second compound 10 µM, first compound 0.0316 µM
[32] = second compound 10 µM, first compound 0.1 µM
[33] = second compound 10 µM, first compound 0.316 µM
[34] = second compound 10 µM, first compound 1 µM
[35] = second compound 10 µM, first compound 3.16 µM
[36] = second compound 10 µM, first compound 10 µM
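Note: viability read after seven days of drug exposure.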
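Throughout, for viability, T/C: 100% = DMSO vehicle control wells.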

## CC(=O)O[C@H]1C(=O)[C@@]2(C)[C@H]([C@H](OC(=O)c3ccccc3)[C@]3(O)C[C@H](OC(=O)[C@H](O)[C@@H](NC(=O)c4ccccc4)c4ccccc4)C(C)=C1C3(C)C)[C@]1(OC(C)=O)CO[C@@H]1C[C@@H]2O + CNC(=O)c1ccc(Nc2nc(OC3CCCC3)c3c(-c4ccc5nc(C)oc5c4)c[nH]c3n2)c(OC)c1
Second compound 0.0316 µM
  IC50: < 31.6 nM
Second compound 0.1 µM
  IC50: < 31.6 nM
Second compound 0.316 µM
  IC50: < 31.6 nM
Second compound 1 µM
  IC50: < 31.6 nM
Second compound 3.16 µM
  IC50: < 31.6 nM
Second compound 10 µM
  IC50: < 31.6 nM
[1]
  viability, T/C: 14.3%
[2]
  viability, T/C: 15.1%
[3]
  viability, T/C: 13.8%
[4]
  viability, T/C: 14.1%
[5]
  viability, T/C: 17.1%
[6]
  viability, T/C: 22%
[7]
  viability, T/C: 19.8%
[8]
  viability, T/C: 17.3%
[9]
  viability, T/C: 22.2%
[10]
  viability, T/C: 21.9%
[11]
  viability, T/C: 27.4%
[12]
  viability, T/C: 35.1%
[13]
  viability, T/C: 16.9%
[14]
  viability, T/C: 17.5%
[15]
  viability, T/C: 26.2%
[16]
  viability, T/C: 27.8%
[17]
  viability, T/C: 35.2%
[18]
  viability, T/C: 37%
[19]
  viability, T/C: 17.1%
[20]
  viability, T/C: 17.7%
[21]
  viability, T/C: 23.9%
[22]
  viability, T/C: 24.2%
[23]
  viability, T/C: 31.9%
[24]
  viability, T/C: 28.6%
[25]
  viability, T/C: 16.6%
[26]
  viability, T/C: 18.2%
[27]
  viability, T/C: 20.1%
[28]
  viability, T/C: 24.6%
[29]
  viability, T/C: 27.2%
[30]
  viability, T/C: 27.2%
[31]
  viability, T/C: 16.9%
[32]
  viability, T/C: 18.1%
[33]
  viability, T/C: 20.6%
[34]
  viability, T/C: 23.5%
[35]
  viability, T/C: 25.1%
[36]
  viability, T/C: 25.6%

## CCc1c2c(nc3ccc(O)cc13)-c1cc3c(c(=O)n1C2)COC(=O)[C@]3(O)CC + CNC(=O)c1ccc(Nc2nc(OC3CCCC3)c3c(-c4ccc5nc(C)oc5c4)c[nH]c3n2)c(OC)c1
Second compound 0.0316 µM
  IC50: < 3.16 nM
Second compound 0.1 µM
  IC50: < 3.16 nM
Second compound 0.316 µM
  IC50: < 3.16 nM
Second compound 1 µM
  IC50: < 3.16 nM
Second compound 3.16 µM
  IC50: < 3.16 nM
Second compound 10 µM
  IC50: < 3.16 nM
Second compound 0.0316 µM, first compound 0.00316 µM
  viability, T/C: 17.9%
Second compound 0.0316 µM, first compound 0.01 µM
  viability, T/C: 12.3%
[1]
  viability, T/C: 12.7%
[2]
  viability, T/C: 13%
[3]
  viability, T/C: 11.2%
[4]
  viability, T/C: 2.24%
Second compound 0.1 µM, first compound 0.00316 µM
  viability, T/C: 17.9%
Second compound 0.1 µM, first compound 0.01 µM
  viability, T/C: 13.3%
[7]
  viability, T/C: 12.5%
[8]
  viability, T/C: 12.7%
[9]
  viability, T/C: 11.3%
[10]
  viability, T/C: 2.05%
Second compound 0.316 µM, first compound 0.00316 µM
  viability, T/C: 14.6%
Second compound 0.316 µM, first compound 0.01 µM
  viability, T/C: 11.1%
[13]
  viability, T/C: 11.8%
[14]
  viability, T/C: 12.1%
[15]
  viability, T/C: 9.98%
[16]
  viability, T/C: 1.99%
Second compound 1 µM, first compound 0.00316 µM
  viability, T/C: 12.2%
Second compound 1 µM, first compound 0.01 µM
  viability, T/C: 9.22%
[19]
  viability, T/C: 10.1%
[20]
  viability, T/C: 8.69%
[21]
  viability, T/C: 8.5%
[22]
  viability, T/C: 1.33%
Second compound 3.16 µM, first compound 0.00316 µM
  viability, T/C: 11.4%
Second compound 3.16 µM, first compound 0.01 µM
  viability, T/C: 9.74%
[25]
  viability, T/C: 8.18%
[26]
  viability, T/C: 8%
[27]
  viability, T/C: 6.57%
[28]
  viability, T/C: 1.29%
Second compound 10 µM, first compound 0.00316 µM
  viability, T/C: 10.2%
Second compound 10 µM, first compound 0.01 µM
  viability, T/C: 10.8%
[31]
  viability, T/C: 8.22%
[32]
  viability, T/C: 8.16%
[33]
  viability, T/C: 6.28%
[34]
  viability, T/C: 1.01%

## COc1cccc2c1C(=O)c1c(O)c3c(c(O)c1C2=O)CC(O)(C(=O)CO)CC3OC1CC(N)C(O)C(C)O1 (stereo unspecified) + CNC(=O)c1ccc(Nc2nc(OC3CCCC3)c3c(-c4ccc5nc(C)oc5c4)c[nH]c3n2)c(OC)c1
Second compound 0.0316 µM
  IC50: < 31.6 nM
Second compound 0.1 µM
  IC50: < 31.6 nM
Second compound 0.316 µM
  IC50: < 31.6 nM
Second compound 1 µM
  IC50: < 31.6 nM
Second compound 3.16 µM
  IC50: < 31.6 nM
Second compound 10 µM
  IC50: < 31.6 nM
[1]
  viability, T/C: 19.3%
[2]
  viability, T/C: 16.8%
[3]
  viability, T/C: 9.74%
[4]
  viability, T/C: 0.7%
[5]
  viability, T/C: 0.12%
[6]
  viability, T/C: 0.14%
[7]
  viability, T/C: 18.5%
[8]
  viability, T/C: 20.2%
[9]
  viability, T/C: 9.65%
[10]
  viability, T/C: 0.48%
[11]
  viability, T/C: 0.11%
[12]
  viability, T/C: 0.15%
[13]
  viability, T/C: 19.1%
[14]
  viability, T/C: 16.3%
[15]
  viability, T/C: 9.12%
[16]
  viability, T/C: 0.49%
[17]
  viability, T/C: 0.16%
[18]
  viability, T/C: 0.13%
[19]
  viability, T/C: 17.2%
[20]
  viability, T/C: 11.7%
[21]
  viability, T/C: 7.13%
[22]
  viability, T/C: 0.58%
[23]
  viability, T/C: 0.14%
[24]
  viability, T/C: 0.15%
[25]
  viability, T/C: 20.2%
[26]
  viability, T/C: 12.2%
[27]
  viability, T/C: 6.62%
[28]
  viability, T/C: 0.36%
[29]
  viability, T/C: 0.14%
[30]
  viability, T/C: 0.16%
[31]
  viability, T/C: 18.3%
[32]
  viability, T/C: 13.4%
[33]
  viability, T/C: 5.95%
[34]
  viability, T/C: 0.31%
[35]
  viability, T/C: 0.19%
[36]
  viability, T/C: 0.23%
